≈ marks a conversion by molar mass, not a printed value.

The conditions of this data set: buffer; pH 7.4; 200.0 µM.
As for `CCOc1ccc(C(C)=O)cc1Cn1ccsc1=N.Cl`, the kinetic solubility (usually solubility judged after dilution from a stock solution rather than from solid) was greater than 46.9 µg/mL.

`CCC(=O)N/C(=N/c1nc(C)cc(C)n1)Nc1ccccc1` had a kinetic solubility of 13 µg/mL (≈ 43.7 µM).

On to `CC(C)(C)c1ccc(C(=O)OCCN2CCCCC2)cc1.Cl`, for which the kinetic solubility was determined as 46 µg/mL. The figure for `O=C(Nc1ccc(Cl)cc1)/C(=C1\CCCN1)[N+](=O)[O-]` is 1 µg/mL (≈ 3.55 µM); for `O=C(c1ccc(F)cc1Cl)N1CCN(CCc2ccccc2)CC1` it is greater than 52 µg/mL; for `COC(=O)c1ccc(COc2ncnc3ccccc23)o1` it is greater than 42.6 µg/mL.

`Br.Clc1ccc(CNCC2CCCO2)cc1` (stereo not given) came in with a kinetic solubility greater than 46 µg/mL. Compound `Cc1cccc(NC(=O)CCOc2ccccc2)c1C` gave a solubility (kinetic) of 15.6 µg/mL (≈ 57.9 µM). The compound `C=CCn1c(SCC(N)=O)nnc1-c1cnccn1` gave a solubility (kinetic) greater than 41.4 µg/mL. In turn, `O=C1NC(=O)N(c2ccc3c(c2)OCO3)C(=O)/C1=C\c1ccsc1` had a solubility (kinetic) greater than 51.3 µg/mL.

For `CNC(=S)Nc1ccc(Cc2ccncc2)cc1`, the kinetic solubility is greater than 38.6 µg/mL. On to `Cc1ccc(C)c(OC(=O)C2CSC3(C)CCC(=O)N23)c1C` (stereo not given), for which the kinetic solubility worked out at 44.2 µg/mL (≈ 138 µM). For `O=C(Nc1ccc(F)cc1)C1CCN(C(=O)c2ccc(F)cc2)CC1`, the solubility (kinetic) is greater than 51.7 µg/mL. `Cc1ccccc1Cn1cc(C)c(=O)[nH]c1=O` returned a kinetic solubility of 29.5 µg/mL (≈ 128 µM).

For `CN(Cc1ccccc1)/C(=N/O)c1cccc(Cl)c1`, the solubility (kinetic) came to 26.4 µg/mL (≈ 96.1 µM). This solubility kinetic and that of the compound before are within 1.5-fold of each other. `CCN1CCN(c2ccc(NC(=O)c3cnccn3)cc2)CC1` yielded a solubility (kinetic) greater than 46.7 µg/mL. Turning to `CCCOCCc1nnc(N)s1`, the kinetic solubility was greater than 28.1 µg/mL. `CCCCn1c(N)c(N(CC)C(=O)CCNC(=O)c2ccc(Cl)cc2)c(=O)[nH]c1=O`: the solubility (kinetic) is greater than 65.4 µg/mL. Compound `Cc1cc(Br)ccc1N=C1NC(=O)CS1` had a kinetic solubility greater than 42.8 µg/mL. `CCOc1cc(/C=N/OC(C)=O)ccc1OCc1ccccc1`: the kinetic solubility turned out to be 27.2 µg/mL (≈ 86.8 µM). `COC(=O)c1ccc(CNC(=O)COC(=O)/C=C/c2cc(OC)c(OC)c(OC)c2)cc1` returned a kinetic solubility of 4.6 µg/mL (≈ 10.4 µM).

In turn, `Cn1c(=O)c2c(ncn2CC(=O)OCC(=O)Nc2ccc(F)cc2Cl)n(C)c1=O` came in with a solubility (kinetic) greater than 63.6 µg/mL. In the case of `Cc1cc(C)n(CC(=O)Nc2ccc3c(c2)OCO3)c(=O)c1C#N`, the solubility (kinetic) was 8.4 µg/mL (≈ 25.8 µM).

`Cc1ccc(S(=O)(=O)N2CCOCC2)cc1C(=O)OCC(=O)N1CCCCC1` displayed a solubility (kinetic) greater than 61.6 µg/mL. As to `C(=C\c1ccco1)/c1ccc2ccccc2n1`, the solubility (kinetic) worked out at 10.7 µg/mL (≈ 48.4 µM). `Cc1ccc(NC(=O)C(=O)c2c[nH]c3ccccc23)cc1` came in with a kinetic solubility of less than 0.3 µg/mL. `COc1cccc(CNc2nc3ccccc3n2C(C)C)c1O` came in with a solubility (kinetic) of 2.2 µg/mL (≈ 7.07 µM).

Compound `COc1cccc(C2CCCN2Cc2nc(-c3cnccn3)no2)c1` (stereo not given) registered a kinetic solubility of 44.9 µg/mL (≈ 133 µM). Against the preceding compound, the solubility kinetic is about 20-fold higher. The figure for `CC(C(=O)Nc1ccc(F)c(F)c1F)N(C)Cc1cccs1` (stereo not given) is 13.6 µg/mL (≈ 41.4 µM); for `Nc1ccc(C(=O)[O-])c(O)c1.O.[Na+]` it is greater than 31.7 µg/mL; for `O=C(COC(=O)c1ccc(S(=O)(=O)N2CCCCC2)cc1)NCc1ccccc1` it is 3.6 µg/mL (≈ 8.64 µM). `CSc1nc(S(=O)(=O)c2ccc(C)cc2)c(Cl)s1`: the kinetic solubility is 10 µg/mL (≈ 31.3 µM). This solubility kinetic lies about 2.8-fold higher than the previous one.

As for `Cc1ccc(C(=O)O)cc1NCc1ccncc1`, the kinetic solubility was greater than 36.3 µg/mL. Compound `O=C(Nc1ccon1)Nc1ccc(Cl)cc1Cl` returned a solubility (kinetic) of 1.6 µg/mL (≈ 5.88 µM).

`Cc1cc(OC(=O)N(C)C)nc(SCc2c(Cl)cccc2Cl)n1` yielded a kinetic solubility of 6.5 µg/mL (≈ 17.5 µM). For `CCC(C)NC(=O)CSc1ccc(S(=O)(=O)N(C)C2CCCCC2)cn1` (stereo not given) the value was 59.4 µg/mL (≈ 149 µM). Compound `N#CCc1cccnc1Sc1ccc(Cl)cc1` gave a kinetic solubility greater than 39.1 µg/mL.

Take `O=S(=O)(NCc1ccc(Cl)cc1)c1cccc2cccnc12`: the kinetic solubility stood at 43.2 µg/mL (≈ 130 µM).

Turning to `O=C(O)c1cccnc1SCc1ccc([N+](=O)[O-])cc1`, the solubility (kinetic) is greater than 43.5 µg/mL. With `O=C(c1cc2ccccc2cc1O)N1CCN(c2ccccn2)CC1`, the kinetic solubility is 32.9 µg/mL (≈ 98.7 µM).

For the compound `CC(C)c1ccc(S(=O)(=O)c2cnc(=S)[nH]c2N)cc1`, the kinetic solubility was 0.9 µg/mL (≈ 2.91 µM). Compound `Cn1c(SCC(=O)NC2CCCC2)nc2c(c1=O)SCC2` showed a kinetic solubility greater than 48.8 µg/mL. For `Cc1cc(/C=C(\C#N)C(=O)O)c(C)n1CC1CCCO1` (stereo not given), the kinetic solubility was greater than 41.1 µg/mL.

The compound `CC1CCCN(C(=O)c2cc(-c3ccco3)nc3ccccc23)C1` (stereo not given) had a solubility (kinetic) greater than 48.1 µg/mL. As to `CCN(CC)S(=O)(=O)c1ccc(-c2csc(C)n2)s1`, the kinetic solubility worked out at 13.6 µg/mL (≈ 43 µM). The figure for `O=C(O)C1Cc2ccccc2CN1C(=O)c1ccco1` (stereo not given) is 30.7 µg/mL (≈ 113 µM); for `COC(=O)CC(CP(=O)([O-])CN(C)C=O)C(=O)OC` (stereo not given) it is 27.9 µg/mL; for `COc1ccc(C(=O)Nc2ccc3c(c2)OCCO3)cc1[N+](=O)[O-]` it is less than 0.4 µg/mL. `CS(=O)(=O)N1c2cccc3cccc(c23)S1(=O)=O` returned a solubility (kinetic) of 7.7 µg/mL (≈ 27.2 µM). In the case of `O=C(NCC(O)c1ccccc1)Nc1cccs1` (stereo not given), the solubility (kinetic) is greater than 39.3 µg/mL. The figure for `CC(=O)c1ccc(NC(=S)Nc2cccc3ccccc23)cc1` is 10.6 µg/mL (≈ 33.1 µM); for `CCOc1ccccc1CNC(c1ccccc1)c1ccccc1.Cl` it is 1.4 µg/mL; for `Cc1ccc(C)c(S(=O)(=O)c2c[nH]c(=S)[nH]c2=O)c1` it is 36.6 µg/mL (≈ 123 µM).

Consider `CCc1ccc(NC(=O)NC(C)c2ccc3c(c2)OCO3)cc1` (stereo not given), for which the kinetic solubility was determined as 1 µg/mL (≈ 3.2 µM). This solubility kinetic is about 37-fold lower than that of the compound before.

`Cc1ccc(NC(=O)COC(=O)c2nn(C)cc2Cl)cc1` came in with a solubility (kinetic) greater than 46.2 µg/mL. Turning to `Cc1cc(F)ccc1NCc1ccc([N+](=O)[O-])cc1`, the solubility (kinetic) came out at 0.3 µg/mL (≈ 1.15 µM). The figure for `CC(C)(CNc1ccc(C(F)(F)F)cc1[N+](=O)[O-])N1CCOCC1` is 5.5 µg/mL (≈ 15.8 µM). For `CN(C(=O)COC(=O)c1cnc(Cl)c(Cl)c1)C1CCCCC1` the value was 41.7 µg/mL (≈ 121 µM).

`Cc1cccn2c(=O)c3cc(C(=O)NC4CCCC4)sc3nc12` yielded a kinetic solubility of 4.9 µg/mL (≈ 15 µM).

In turn, `CCN(C(=O)CSc1ccc2ccccc2n1)C1CCCCC1` came in with a solubility (kinetic) of 14.6 µg/mL (≈ 44.4 µM).

Regarding `CN(CC(=O)NCCc1ccc(S(N)(=O)=O)cc1)CC(=O)Nc1ccc(F)c(F)c1F`, the kinetic solubility is greater than 68.8 µg/mL. For `CSc1ccc(CN(C)CC(=O)NCc2ccccc2)cc1` the value was 41 µg/mL (≈ 130 µM); for `O=C(Nc1nnc(C2=COCCO2)o1)c1ccc(F)cc1`, greater than 43.7 µg/mL; for `C#CC[N+](C)(C)CC#Cc1ccc(C)cc1.[Br-]`, greater than 43.8 µg/mL. Compound `CCCNC(=O)CN1C(=O)NC(CCSC)C1=O` (stereo not given) displayed a kinetic solubility greater than 41 µg/mL. `COc1ccc(S(=O)(=O)NCc2ccc(F)cc2)cc1OC`: the solubility (kinetic) was greater than 48.8 µg/mL. The figure for `O=C(Nc1ccc(OC(F)F)cc1)c1ccccn1` is 31.5 µg/mL (≈ 119 µM); for `CCNc1nc(OC)nc(SCC(=O)Nc2ccccc2)n1` it is greater than 47.9 µg/mL; for `O=S(=O)(NCCc1ccncc1)c1ccc(F)cc1` it is greater than 42 µg/mL. Regarding `COc1ccc(-c2c(C(F)(F)F)nn(C)c2NC(=O)c2ccco2)cc1`, the kinetic solubility is greater than 54.8 µg/mL. Turning to `Cc1ccc(OCCNC(=O)CCc2ccccc2)cc1C`, the solubility (kinetic) came to 12.9 µg/mL (≈ 43.4 µM). Turning to `Cc1noc(NS(=O)(=O)c2ccc(NC(=O)c3cccc(S(=O)(=O)Nc4ccccc4F)c3)cc2)c1C`, the solubility (kinetic) came out at 71.3 µg/mL (≈ 131 µM). `COc1cccc(OCc2nc(-c3ccc(Br)o3)no2)c1` showed a solubility (kinetic) of 7.1 µg/mL (≈ 20.2 µM).

Compound `COc1ccc(NC(=O)c2cc(C)nc3ccccc23)cc1S(=O)(=O)N1CCOCC1` yielded a kinetic solubility of 6.1 µg/mL (≈ 13.8 µM). The solubility kinetic values of the last two compounds are within 1.5-fold of each other. With `O=C(CCCc1ccccc1)NCc1ccc(Cl)cc1`, the kinetic solubility turned out to be 27.7 µg/mL (≈ 96.3 µM). Take `Cc1ccc(CNCCNCCO)s1.Cl`: the solubility (kinetic) was greater than 43.1 µg/mL. As for `OC(CN1CCOCC1)Cn1c2ccccc2c2ccccc21` (stereo not given), the kinetic solubility was greater than 46.6 µg/mL. The compound `Cc1cccc(C(=O)NCCC(=O)NCc2ccccc2F)c1` gave a solubility (kinetic) greater than 47.2 µg/mL.

With `N#CC(CCN1CCOCC1)(c1ccccc1)c1ccccc1`, the solubility (kinetic) was 43.1 µg/mL (≈ 141 µM). Regarding `Cn1ccnc1-c1ccc(-c2nccn2C)cc1`, the solubility (kinetic) amounted to 33.8 µg/mL (≈ 142 µM).

Consider `O=Cc1c(NCc2ccco2)nc2ccccn2c1=O`, for which the solubility (kinetic) was 19.5 µg/mL (≈ 72.4 µM). In the case of `Cc1onc(-c2ccccc2Cl)c1C(O)c1ccc(F)cc1` (stereo not given), the solubility (kinetic) came to 46.6 µg/mL (≈ 147 µM). In the case of `COc1ccccc1CNC(=O)CNC(=O)c1sc2ccccc2c1Cl`, the solubility (kinetic) was 7.6 µg/mL (≈ 19.5 µM).

As for `COC(=O)c1ccccc1NC(=O)c1ccc2c(c1)CC(C)O2` (stereo not given), the solubility (kinetic) was 2.4 µg/mL (≈ 7.71 µM). The figure for `O=C(NCc1ccccc1F)c1ccc2c(c1)OCCO2` is greater than 43.1 µg/mL; for `CSc1ccccc1NC(=O)Cn1c([N+](=O)[O-])cnc1C` it is 41.5 µg/mL (≈ 135 µM). `C=CCSc1nc2sc3c(c2c(=O)n1CC)CCc1ccccc1-3` showed a solubility (kinetic) greater than 53.2 µg/mL.

As for `COc1ccc(C(C)NC(=O)C2CCCC2)cc1` (stereo not given), the solubility (kinetic) is greater than 37.1 µg/mL.

Compound `CCCSc1ncccc1C(=O)O` had a kinetic solubility greater than 29.6 µg/mL. Compound `CCN(Cc1ccc(Cl)s1)C(=O)c1cccc(OCc2c(C)noc2C)c1` had a kinetic solubility of 16.4 µg/mL (≈ 40.5 µM). In turn, `COc1ccc(OCCNS(=O)(=O)c2cccc([N+](=O)[O-])c2)cc1` gave a kinetic solubility of 16.4 µg/mL (≈ 46.5 µM). Compound `COc1ccc(C(=O)O)cc1NCc1ccc(C)s1` had a kinetic solubility greater than 41.6 µg/mL. Regarding `Cc1ccc(C)c(C(=O)CCC(=O)Nc2ccc(F)cc2)c1`, the solubility (kinetic) is 1 µg/mL (≈ 3.34 µM). For the compound `O=S(=O)(c1ccc2ncn(O)c2c1)N1CCOCC1`, the kinetic solubility is greater than 42.5 µg/mL. In turn, `CC1CCN(C(=O)CSc2nc(C3CC3)nc3ccccc23)CC1` showed a kinetic solubility greater than 51.2 µg/mL. The compound `CCOc1cccc(/C=C/c2ccc3cccc(O)c3n2)c1OC` displayed a solubility (kinetic) of less than 0.7 µg/mL.

In the case of `CC(Sc1ncccn1)C(=O)NNC(=O)c1cccc(Cl)c1` (stereo not given), the kinetic solubility was greater than 50.5 µg/mL. As to `Cc1cccc(NC(=O)CCN2CCN(C)CC2)c1.Cl`, the solubility (kinetic) is greater than 44.7 µg/mL. For `CC(NC(=O)CCl)c1ccccc1Br` (stereo not given), the solubility (kinetic) is greater than 41.5 µg/mL.

Regarding `Cc1cc2[nH]c3ccccc3c2cn1`, the solubility (kinetic) is greater than 27.3 µg/mL. For `COc1ccc(C(=O)N2CCN(CCc3ccccn3)CC2)cc1.Cl`, the solubility (kinetic) is greater than 54.3 µg/mL. In turn, `CC(C)c1ccc(C(=O)Nc2cccnc2)cc1` returned a kinetic solubility greater than 36 µg/mL.

Turning to `CC(CCc1ccccc1)NC(=O)c1ccc(F)cc1` (stereo not given), the kinetic solubility was 33.6 µg/mL (≈ 124 µM).

Turning to `CC(C(=O)NCc1ccccc1Cl)N1C(=O)c2ccccc2C1=O` (stereo not given), the kinetic solubility is greater than 51.4 µg/mL. The figure for `O=C(COC(=O)Cc1ccccc1F)NC(=O)NC1CCCC1` is 42.5 µg/mL (≈ 132 µM).

For the origin of these results see PubChem BioAssay AID1996.
